Columns and labels:
[1] = Dynamic Vapour Sorption; assay type: physicochemical; settings: 25° C.; for hygroscopicity: 0-95% RH, two cycles, batches from Method 1 and Method 2 (FIGS. 4 and 5)
Protocol: Analytical Instrument: Surface Measurements Systems Dynamic Vapour Sorption Analyser. About 5 mg of material contained in a quartz holder at a specified temperature was subjected to humidified nitrogen at a flow rate of 200 ml/minute of nitrogen at 25° C. at the following relative humidities (RH): 0, 20, 40, 60, 80, 95, 80, 60, 40, 20, 0% RH in duplicate. The weight of the material at a particular relative humidity was monitored until it was stable according to a weight criteria of 0.002% weight change per minute averaged over 10 minutes. If the weight was still changing then it stayed at a particular relative humidity until the weight was stable (up to a maximum time of 12 hours).

[2] = pro-drug conversion in human plasma; assay type: in vitro ADME
[3] = system: human colorectal (SW620, HCT116, Colo205) and lung (A549, Calu-6) tumour xenografts; experiment: tumour growth inhibition in human tumour xenografts; assay type: in vivo; settings: panel of human colorectal (SW620, HCT116, Colo205) and lung (A549, Calu-6) tumour xenografts; with statistical significance

conversion of pro-drug to active moiety AZD1152 HQPA [2]	SMILES	hygroscopicity [1]	hygroscopicity ([1]; listed as maleate co-crystal of AZD1152)	level of water (hydration state) with relative humidity ([1]; 0-95% RH (FIG. 6), dehydrated to tetrahydrated state and higher)	inhibition of tumour growth [3]
–	CCN(CCCOc1ccc2c(Nc3cc(CC(=O)Nc4cccc(F)c4)[nH]n3)ncnc2c1)CCOP(=O)(O)O.O=C(O)/C=C\C(=O)O [AZD1152 maleate co-crystal, 2-{ethyl[3-({4-[(5-{2-[(3-fluorophenyl)amino]-2-oxoethyl}-1H-pyrazol-3-yl)amino]quinazolin-7-yl}oxy)propyl]amino}ethyl dihydrogen phosphate.maleate]	non-hygroscopic	substantially non-hygroscopic	–	–
rapidly and completely converted	CCN(CCCOc1ccc2c(Nc3cc(CC(=O)Nc4cccc(F)c4)n[nH]3)ncnc2c1)CCOP(=O)(O)O [AZD1152, 2-{ethyl[3-({4-[(5-{2-[(3-fluorophenyl)amino]-2-oxoethyl}-1H-pyrazol-3-yl)amino]quinazolin-7-yl}oxy)propyl]amino}ethyl dihydrogen phosphate]	–	–	quite variable depending on the relative humidity of storage	inhibit tumour growth
